According to patent publication US10744146B2, “Composition having effects of preventing or ameliorating conditions or diseases caused by brain hypofunction” (SUNTORY HOLDINGS LIMITED, priority 2001, dated 2020):

Experiments:
hippocampus LTP = conditions: 22-month-old rats, arachidonic acid diet 10 mg/rat/day for 8 weeks; versus 4-month-old young rats; cited from earlier work
old male Fischer rats = assay: Probe test after Morris water maze learning (time in quadrant where escape platform used to be); assay type: in vivo, rat; conditions: for time spent in the quadrant (¼) where the escape platform used to be, mean±standard deviation: old rats 21 months
Experimental: A Morris water maze learning test was conducted around the third month of the experiment (age of old rats: 21 months, age of young rats: 7 months). The Morris water maze test is a learning test based on spatial recognition in which water stained black with ink is filled (height of water level: 20 cm) into a water tank (diameter: 120 cm, height: 35 cm), a rat is placed on an escape platform of a size (diameter: 11.5 cm, height: 19 cm) that is just large enough for the rat to stand on (the escape platform is located beneath the surface of the water and cannot be seen by rats swimming in the water tank), the rat on which the learning test is to be performed is placed in the water tank at a predetermined location in the tank (starting point), and then forced to swim to the escape platform. This test is recognized to have a correlation with the hippocampus that governs memory, and is widely used in the US and Europe. As the test is repeated, the rats learn the location of the escape platform. The rats were allowed to learn using the method described below. Namely, after releasing a rat from the starting point of the Morris water maze test apparatus, if the rat was unable to reach the escape platform within 60 seconds, the rat was placed on the escape platform, thereby enabling it to learn the location of the unseen escape platform. This learning process was continued for 2 weeks no more than twice a day. The percentage of the amount of time required to swim from the starting point to the escape platform within an angular deviation range of ±15° to the total swimming time (Hit %, see FIG. 2) was used as an indicator of learning. […] In FIG. 3, each graduation on the scale of the horizontal axis represents four trials, or two days worth of testing.
Next, in order to determine the degree of learning acquisition, a probe test was conducted on the day after two weeks of the aforementioned learning, namely on day 15. If the escape platform is taken away after the rats have acquired learning, the rats swim around at the location where the escape platform used to be. The time during which the rats swim around at the former location of the escape platform based on the memory of where it used to be (evaluated by dividing the water tank into four quadrants and evaluated as the amount of time (seconds) spent in the quadrant where the escape platform used to be) can used to evaluate the degree of learning acquisition. The paths swam by the No. 1 and No. 2 rats of the YC group, OA group and OC group are shown (FIG. 4). Furthermore, as the rats were allowed to learn by changing the starting points for individual rats, the starting point (S) and quadrant where the escape platform used to be in FIG. 4 differ according to individual rats. […]

| SMILES | hippocampus LTP levels (hippocampus LTP) | absorption (old male Fischer rats; Example 4, inferred from the probe test at the same ingested amount of arachidonic acid) | time spent in the quadrant (¼) where the escape platform used to be, mean±standard deviation (old male Fischer rats; Example 4, 40 mg arachidonic acid/rat/day, group OA 6 animals, group 8A8 8 animals) | degree of learning acquisition (old male Fischer rats; Example 4, old rats, comparison between TGA40S and 8A8 and with young rats) | time spent in the quadrant (¼) where the escape platform used to be, mean±standard deviation (old male Fischer rats; Example 5, arachidonic acid per rat per day: 8A8 diet 40 g (so in the source), 8A8-containing oil or fat diet 13.2 mg) |
| --- | --- | --- | --- | --- | --- |
| CCCCC/C=C\C/C=C\C/C=C\C/C=C\CCCC(=O)O [arachidonic acid] | recovery to the level of young rats | – | – | – | – |
| CCCCC/C=C\C/C=C\C/C=C\C/C=C\CCCC(=O)OC(COC(=O)CCCCCCC)COC(=O)CCCCCCC [8A8, 1,3-capryloyl-2-arachidonoyl-glycerol] | – | more easily absorbed than TGA40S | 27.18 ± 5.10 s | tended to result in a higher degree of learning acquisition | 27.00 ± 4.65 s |
